From patent US20240002404A1, “SALT OF PYRROLOPYRIMIDINE COMPOUND, CRYSTALLINE FORM THEREOF, AND APPLICATION THEREOF” (GUANGZHOU JOYO PHARMATECH CO., LTD, priority 2020, published 2024)
Where a name gives a salt, the structure may show the parent alone. Read-outs that look alike come from different tables or passages of the source. Each block holds one compound with its values, some of them ahead of it.

Experiments:
in vitro = conditions: human, Caco-2, pH 7.4
Description: The transport buffer solution was HBSS (Hanks' balanced salt solution) and 10 mM HEPES [N-(2-hydroxyethyl)piperazine-N-(2-ethanesulfonic acid) solution], with a pH value of 7.40±0.05; Caco-2 cells were purchased from ATCC.
Caco-2 cells were seeded at 1×10^5 cells/cm^2 in 96-well BD insert plates of polyethylene terephthalate (PET), and the medium was refreshed every 4-5 days until day 21-28 to form a confluent monolayer. Test compounds were tested in a two-way format at 2 μM in duplicate. Digoxin was added at 10 μM in the two-way format, and nadolol and metoprolol were added at 2 μM in the two-way format. Final concentration of DMSO was adjusted to less than 1%. The plates were incubated in a CO2 incubator at 37±1° C. for 2 h with 5% CO2 at saturated humidity without shaking. All samples were mixed with acetonitrile containing an internal standard, and centrifuged at 4000 rpm for 10 min. 100 microliters of supernatant was diluted with 100 microliters of distilled water for LC/MS/MS analysis. By LC/MS/MS analysis, the concentrations of the test compounds and the reference compound in the initial test article solution, the test article solution and the test compound solution using the peak area ratio of the analyte to the internal standard. After the transport test, the integrity of the Caco-2 cell monolayer was determined by fluorescein yellow exclusion reaction, and the apparent permeability coefficient and efflux ratio were calculated.

[1] = Dynamic solubility evaluation in water and biological menstruums; assay type: physicochemical; conditions: for pH: solubility sample
Description: The dynamic solubility of the crystal form B of the sulfate, the crystal form A of the maleate and the crystal form C of the hydrochloride in water and three biological menstruums was evaluated.

[2] = Hygroscopicity evaluation by DVS; assay type: physicochemical; conditions: 25° C./80% RH, listed as crystal form B of the sulfate
Description: The hygroscopicity of the crystal form B of the sulfate, the crystal form A of the maleate and the crystal form C of the hydrochloride was evaluated by DVS. The water adsorption (second adsorption curve) of the three salt forms at 25° C./80% RH is 7.62%, 1.35% and 4.77% respectively.

[3] = Solid state stability (HPLC purity after storage); assay type: physicochemical
Description: The chemical stability of the samples was determined by HPLC after placing the crystal form B of the sulfate, the crystal form A of the maleate and the crystal form C of the hydrochloride at 25° C./60% RH and 40° C./75% RH for 1 week, respectively. For the maleate, additional stability data for one month and two months storage at 25° C./60% RH and 40° C./75% RH (open) were collected, and using the crystal form A of maleate as the starting sample, stability data for 24 hours storage at 60° C. (closed) were collected.

[4] = FaSSIF, 1 hour, 37° C., feeding 10 mg/mL
[5] = FaSSIF, 2 hours, 37° C., feeding 10 mg/mL
[6] = FaSSIF, 4 hours, 37° C., feeding 10 mg/mL
[7] = FaSSIF, 24 hours, 37° C., feeding 10 mg/mL
[8] = FeSSIF, 1 hour, 37° C., feeding 10 mg/mL
[9] = FeSSIF, 2 hours, 37° C., feeding 10 mg/mL
[10] = FeSSIF, 4 hours, 37° C., feeding 10 mg/mL
[11] = FeSSIF, 24 hours, 37° C., feeding 10 mg/mL
[12] = H2O, 1 hour, 37° C., feeding 10 mg/mL
[13] = H2O, 2 hours, 37° C., feeding 10 mg/mL
[14] = H2O, 4 hours, 37° C., feeding 10 mg/mL
[15] = H2O, 24 hours, 37° C., feeding 10 mg/mL
[16] = SGF, 1 hour, 37° C., feeding 10 mg/mL
[17] = SGF, 2 hours, 37° C., feeding 10 mg/mL
[18] = SGF, 4 hours, 37° C., feeding 10 mg/mL
[19] = SGF, 24 hours, 37° C., feeding 10 mg/mL

SMILES: COCCc1ccc(OCC(O)CNC(C)C)cc1 (centres unmarked) [Metoprolol]
Papp A→B at 2 h, 2 μM (in vitro): 181 nm/s

SMILES: CN(c1ncnc2[nH]ccc12)[C@@H]1CCc2cc(C#N)nn2C1 [Crystal form B of sulfate]
S: solubility [1, 4]: 3.4 mg/mL
S: solubility [1, 5]: 3.4 mg/mL
S: solubility [1, 6]: 3.3 mg/mL
S: solubility [1, 7]: 2.6 mg/mL
S: solubility [1, 8]: 0.07 mg/mL
S: solubility [1, 9]: 0.07 mg/mL
S: solubility [1, 10]: 0.06 mg/mL
S: solubility [1, 11]: 0.05 mg/mL
S: solubility [1, 12]: 3.7 mg/mL
S: solubility [1, 13]: 3.8 mg/mL
S: solubility [1, 14]: 3.7 mg/mL
S: solubility [1, 15]: 4.0 mg/mL
S: solubility [1, 16]: 5.3 mg/mL
S: solubility [1, 17]: 5.0 mg/mL
S: solubility [1, 18]: 4.8 mg/mL
S: solubility [1, 19]: 5.3 mg/mL
pH ([1]; FaSSIF, 1 hour): 2.7
pH ([1]; FaSSIF, 2 hours): 2.6
pH ([1]; FaSSIF, 4 hours): 2.7
pH ([1]; FaSSIF, 24 hours): 2.4
pH ([1]; FeSSIF, 1 hour): 4.3
pH ([1]; FeSSIF, 2 hours): 4.3
pH ([1]; FeSSIF, 4 hours): 4.3
pH ([1]; FeSSIF, 24 hours): 4.4
pH ([1]; H2O, 1 hour): 2.0
pH ([1]; H2O, 2 hours): 2.2
pH ([1]; H2O, 4 hours): 2.1
pH ([1]; H2O, 24 hours): 1.9
pH ([1]; SGF, 1 hour): 1.7
pH ([1]; SGF, 2 hours): 1.8
pH ([1]; SGF, 4 hours): 1.8
pH ([1]; SGF, 24 hours): 1.6
water adsorption (second adsorption curve) [2]: 7.62%
Purity (area %) ([3]; 25° C./60% RH, 1 week): 97.98 area %
Purity/Initial Purity (%) ([3]; 25° C./60% RH, 1 week): 99.57%
Purity (area %) ([3]; 40° C./75% RH, 1 week): 98.06 area %
Purity/Initial Purity (%) ([3]; 40° C./75% RH, 1 week): 99.65%
Purity (area %) ([3]; Initial): 98.40 area %

More lines, now with the values ahead:

S: solubility [1, 4]: 0.98 mg/mL
S: solubility [1, 5]: 0.96 mg/mL
S: solubility [1, 6]: 0.98 mg/mL
S: solubility [1, 7]: 0.77 mg/mL
S: solubility [1, 8]: 0.06 mg/mL
S: solubility [1, 9]: 0.05 mg/mL
S: solubility [1, 10]: 0.05 mg/mL
S: solubility [1, 11]: 0.03 mg/mL
S: solubility [1, 15]: 1.7 mg/mL
solubility at 1 h ([1]; SGF, 37 °C, simulated gastric fluid, thermodynamic from solid, SGF, 1 hour, 37° C., feeding 10 mg/mL, read-out: S: solubility): 6.8 mg/mL
solubility at 2 h ([1]; SGF, 37 °C, simulated gastric fluid, thermodynamic from solid, SGF, 2 hours, 37° C., feeding 10 mg/mL, read-out: S: solubility): 6.4 mg/mL
solubility at 4 h ([1]; SGF, 37 °C, simulated gastric fluid, thermodynamic from solid, SGF, 4 hours, 37° C., feeding 10 mg/mL, read-out: S: solubility): 6.6 mg/mL
solubility at 24 h ([1]; SGF, 37 °C, simulated gastric fluid, thermodynamic from solid, SGF, 24 hours, 37° C., feeding 10 mg/mL, read-out: S: solubility): 3.9 mg/mL
solubility at 1 h ([1]; water, 37 °C, water, thermodynamic from solid, H2O, 1 hour, 37° C., feeding 10 mg/mL, read-out: S: solubility): 2.9 mg/mL
solubility at 2 h ([1]; water, 37 °C, water, thermodynamic from solid, H2O, 2 hours, 37° C., feeding 10 mg/mL, read-out: S: solubility): 2.8 mg/mL
solubility at 4 h ([1]; water, 37 °C, water, thermodynamic from solid, H2O, 4 hours, 37° C., feeding 10 mg/mL, read-out: S: solubility): 2.7 mg/mL
SMILES: CN(c1ncnc2[nH]ccc12)[C@@H]1CCc2cc(C#N)nn2C1 [Crystal form A of maleate]

Papp A→B at 2 h, 2 μM (in vitro): 0.4 nm/s
Papp B→A at 2 h, 2 μM (in vitro): 139 nm/s
efflux ratio at 2 h, 2 μM (in vitro): 349
SMILES: C[C@H]1O[C@@H](O[C@H]2[C@@H](O)C[C@H](O[C@H]3[C@@H](O)C[C@H](O[C@H]4CC[C@@]5(C)[C@H](CC[C@@H]6[C@@H]5C[C@@H](O)[C@]5(C)[C@@H](C7=CC(=O)OC7)CC[C@]65O)C4)O[C@@H]3C)O[C@@H]2C)C[C@H](O)[C@@H]1O [Digoxin]

S: solubility [1, 4]: 0.67 mg/mL
S: solubility [1, 5]: 0.64 mg/mL
S: solubility [1, 6]: 0.59 mg/mL
S: solubility [1, 7]: 0.49 mg/mL
S: solubility [1, 8]: 0.02 mg/mL
S: solubility [1, 9]: 0.02 mg/mL
S: solubility [1, 10]: 0.02 mg/mL
S: solubility [1, 11]: 0.01 mg/mL
S: solubility [1, 12]: 2.7 mg/mL
S: solubility [1, 13]: 2.4 mg/mL
S: solubility [1, 14]: 2.3 mg/mL
S: solubility [1, 15]: 2.0 mg/mL
S: solubility [1, 16]: 5.6 mg/mL
S: solubility [1, 17]: 5.3 mg/mL
S: solubility [1, 18]: 5.1 mg/mL
S: solubility [1, 19]: 4.3 mg/mL
SMILES: CN(c1ncnc2[nH]ccc12)[C@@H]1CCc2cc(C#N)nn2C1 [Crystal form C of hydrochloride]
